Reference: US20240383831A1, “ALKOXYLATION OF CANNABIDIOL AND OTHER CANNABINOIDS” (Indorama Ventures Oxides LLC, priority 2021, published 2024)

Columns and labels:
Type in all cases: physicochemical
[1] = Water solubility of e-CBD compounds, 5 wt % actives in water
Description: (§1) The alkoxylated product that results from the above reaction conditions can be characterized using common analytical techniques, including hydroxyl value, melting point, unreacted cannabinoid (wt %), cloud point (5 wt % in water), pH (5 wt % in water), ^1H NMR-structural analysis, and appearance. Comparisons between a cannabinoid and its alkoxylated form (such as CBD and e-CBD in EXAMPLE 1 below) are made in Table 1 exemplifying how the e-CBD having a (POE) value of 12 behaves differently as compared to its non-ethoxylated precursor. While these properties are strongly dependent on the number of moles of EO used in relation to the equivalents of CBD, in order to obtain a water soluble or dispersible product, the number of moles of EO in the e-CBD may be between about 1-100, more preferably between about 10-25.
By varying the molar ratio of the epoxide-to-cannabinoid starter compound to produce a product having a (POE) value between 7 and 36, the hydrophilicity of the cannabinoid may be tuned (see Table 2). The water solubility of the alkoxylated-CBD compounds (Examples 1-4) was determined at room (25° C.) and physiological (37° C.) temperatures.

[2] = Cloud point, 5 wt % actives in water
Description: as §1

pH of 5 wt % in water = assay: pH of 5 wt % in water
Description: as §1

C=C(C)[C@@H]1CCC(C)=C[C@H]1c1c(O)cc(CCCCC)cc1O [CBD, cannabidiol]
Insoluble: Water Solubility (5 wt % in water at 37° C.) ([1]; Table 1, 5 wt % in water, 37° C.) | Water Solubility (5 wt % actives in water at 25° C.) ([1]; Table 2, 5 wt % actives in water, 25° C. (room temperature)) | Water Solubility (5 wt % actives in water at 37° C.) ([1]; Table 2, 5 wt % actives in water, 37° C. (physiological temperature)) | Cloud Point (° C., 5 wt % actives in water) [2] | pH (5 wt % in water at 25° C.) (pH of 5 wt % in water)
